Usually solubility stands for how much of the substance goes into solution per volume.

Here are results for two compounds from US10159671B2, “Compositions of multiple aripiprazole prodrugs” (ALKERMES PHARMA IRELAND LIMITED, priority 2016, dated 2018).

The nature of one series: Solubility in water. It counts as physicochemical. How it is done: The present invention combines particle populations of at least two distinct aripiprazole prodrugs. In a preferred embodiment the composition comprises a particle population of aripiprazole lauroxil and aripiprazole cavoxil particles. The physical and chemical properties of the aripiprazole prodrugs within the scope of the present invention can vary considerably. For instance, aripiprazole cavoxil was determined to have a solubility in water of less than about 1 μg/ml, whereas aripiprazole lauroxil was determined to have a solubility of less than about 4 ng/mL.

Series [1] is described as follows: Solubility in a solution comprising 1.5% (w/w) polysorbate 20. Particulars: aqueous solution with 1.5% (w/w) polysorbate 20, aqueous with cosolvent or surfactant or cyclodextrin; 1.5% (w/w) polysorbate 20 at 40° C., pH 7. The class given is physicochemical. The source says: These represent significant differences in the water solubility of the aforementioned prodrugs.

Each structure is given as a SMILES string.

In the case of `CCCCCC(=O)OCN1C(=O)CCc2ccc(OCCCCN3CCN(c4cccc(Cl)c4Cl)CC3)cc21` [aripiprazole cavoxil, (7-(4-(4-(2,3-Dichlorophenyl)piperazin-1-yl)butoxy)-2-oxo-3,4-dihydroquinolin-1(2H)yl)methyl hexanoate], the figures for the solubility (in the series “Solubility in water”; in series [1]) were < 1 µg/mL and < 50 µg/mL, respectively.
`CCCCCCCCCCCC(=O)OCN1C(=O)CCc2ccc(OCCCCN3CCN(c4cccc(Cl)c4Cl)CC3)cc21` [aripiprazole lauroxil, Dodecanoic acid, [7-[4-[4-(2,3-dichlorophenyl)-1-piperazinyl]butoxy]-3,4-dihydro-2-oxo-1(2H)-quinolinyl]methyl ester]: the solubility was < 0.004 µg/mL in the series “Solubility in water” and < 2 µg/mL in series [1].
